Like-named read-outs stand apart in the source and are kept apart here.
Assays:
[1] = test system: cat; test: Administration to a cat, spot-on dropping, clinical symptom (Test Example 4); settings: for Clinical symptom: 0.5 ml spot-on
Excerpt: After the dropping, the clinical symptom of the cat was observed.

[2] = test system: hatched larvae of Haemaphysalis longicornis; test: In vivo control effect on ticks on rabbit ears, spot-on treatment (Test Example 2)
Method: About 40 hatched larvae of Haemaphysalis longicornis were inoculated on the ears of a rabbit by the use of a cloth bag, made parasitic on the rabbit and allowed to suck the blood. After 24 hours, the cloth bag was taken off and ticks sucking the blood were counted. […] The left ear was not treated. Three hours, 1 day and 2 days after the spot-on treatment, the living ticks on each of the right and left ears were counted. As a control animal, there was used a rabbit whose right ear had been treated with only the base ingredient for preparation for spot-on treatment and whose left ear had been not treated.

[3] = test system: two-spotted spider mite (Tetranychus urticae); test: Comparative test: insecticidal effect on two-spotted spider mite, leaf immersion (Test Example 5); format: in vivo; settings: for insecticidal activity against the two-spotted spider mites (in words): 200 ppm, 2 days after immersion; for mortality at 200 ppm: Tetranychus urticae, in Phaseolus vulgaris, 48 h, read-out: Mortality after 2 days (%)
Method: Twenty adult female two-spotted spider mites were released on the leaves of a potted kidney bean plant. One day after the release, the kidney bean leaves were immersed for several seconds in a chemical solution obtained by diluting a 20% emulsion of each compound with tap water to a concentration of 200 ppm. After air-dryness, the leaves were placed in a room thermostated at 25° C. Two days after the immersion, whether the adult two-spotted spider mites on the leaves were alive or dead were judged and the dead and alive were counted. The mortality was calculated.

[4] = test system: std:ddy strain male mice; test: Toxicity to mouse, administration into the stomach (Test Example 3); format: in vivo; settings: into the stomach in olive oil
Method: The compound listed in Table 1 or Fipronil was dissolved in olive oil to a predetermined concentration, and the resulting solution was directly administered into the stomachs of std:ddy strain male mice by the use of a probe. The dose was 30 mg/kg or 100 mg/kg. Whether the mice were alive or dead was observed 3 hours, 1 day, 7 days and 14 days after the administration.

[5] = test system: hatched larvae of Haemaphysalis longicornis; test: In vitro control effect on acarians, treated Pasteur's pipette test (Test Example 1); format: in vivo
Method: Neoglamine was added to the emulsion of Example 1 in an amount of 0.01% and the resulting mixture was diluted with tap water to each concentration shown in Table 2. After a commercial 0.5×15 cm Pasteur's pipette was immersed in the dilution for 30 seconds, it was vertically stood on cotton and air-dried. The head of the air-dried Pasteur's pipette was plugged with cotton, and 10 hatched larvae of Haemaphysalis longicornis were sucked from the cotton-plugged end side by the use of a suction pump and then the other end was sealed with putty. After the suction, the pipette was allowed to stand in a desiccator containing a saturated aqueous disodium hydrogenphosphate solution and maintained at 23° C. Observation was carried out after 2 days and after 4 days. Fipronil was used as a positive control.

[6] = left ear (not treated), right ear spot-on 0.1 ml of 20% solution
[7] = right ear (treated), spot-on 0.1 ml of 20% solution
[8] = Haemaphysalis longicornis, 48 h, read-out: Mortality after 2 days
[9] = Haemaphysalis longicornis, 96 h, read-out: Mortality after 4 days

Row | SMILES | insecticidal activity against the two-spotted spider mites (in words) [3] | mortality at 200 ppm [3] | Cumulative mortality after 3 hours ([4]; 30 mg/kg) | Cumulative mortality after 1 day ([4]; 30 mg/kg) | Cumulative mortality after 7 days ([4]; 30 mg/kg) | Cumulative mortality after 14 days ([4]; 30 mg/kg) | Cumulative mortality after 3 hours ([4]; 100 mg/kg) | Cumulative mortality after 1 day ([4]; 100 mg/kg) | Cumulative mortality after 7 days ([4]; 100 mg/kg) | Cumulative mortality after 14 days ([4]; 100 mg/kg) | mortality at 0.1 ppm [5, 8] | mortality at 1 ppm [5, 8] | mortality at 10 ppm [5, 8] | mortality at 1 ppm [5, 9] | mortality at 10 ppm [5, 9] | further results
1 | FC(Cl)(Cl)Sc1cn(-c2c(Cl)cc(C(F)(F)F)cc2Cl)c2ccccc12 [Compound 17, 1-(2,6-dichloro-4-trifluoromethylphenyl)-3-(dichlorofluoromethylthio)indole] | no insecticidal activity | 0% | 0/5 | 0/5 | 0/5 | 0/5 | 0/5 | 0/5 | 0/5 | 0/5 | 0% | 20% | 100% | 80% | 100% | Clinical symptom ([1]; cat, dropping concentration 10%): No sign was recognized; Clinical symptom ([1]; cat, dropping concentration 20%): No sign was recognized; Clinical symptom ([1]; cat, dropping concentration 30%): No sign was recognized; abnormal sign due to the spot-on dropping ([1]; cat, 10, 20 or 30% liquid drops): no abnormal sign; toxicity to cat (in words) ([1]; cat, spot-on 10, 20 or 30% liquid drops): only low toxicity; extermination of ticks on the treated right ear (in words) ([2]; in 3 hours after the treatment): quickly exterminated ticks on the right ear; extermination of ticks on the untreated left ear (in words) ([2]; in 1 day after the treatment): also exterminated ticks on the left ear; Number of living ticks, before dropping ([2]; left ear (not treated), baseline before spot-on on right ear): 15; Number of living ticks, after 3 hours [2, 6]: 15; Number of living ticks, after 1 day [2, 6]: 0; Number of living ticks, after 2 days [2, 6]: 0; Number of living ticks, before dropping ([2]; right ear (treated ear), baseline before spot-on of 0.1 ml 20% solution): 15; Number of living ticks, after 3 hours [2, 7]: 3; Number of living ticks, after 1 day [2, 7]: 1; Number of living ticks, after 2 days [2, 7]: 0; mortality at 0.1 ppm [5, 9]: 0%
2 | FC(F)(F)Sc1cn(-c2c(Cl)cc(C(F)(F)F)cc2Cl)c2ccccc12 [Compound 25, 1-(2,6-dichloro-4-trifluoromethylphenyl)-3-(trifluoromethylthio)indole] | no insecticidal activity | 0% | 0/5 | 0/5 | 0/5 | 0/5 | 0/5 | 0/5 | 0/5 | 0/5 | 100% | 100% | 100% | 100% | 100% | mortality at 0.01 ppm [5, 8]: 30%; mortality at 0.01 ppm [5, 9]: 60%
3 | N#Cc1nn(-c2c(Cl)cc(C(F)(F)F)cc2Cl)c(N)c1[S+]([O-])C(F)(F)F (centres unmarked) [Fipronil, 5-amino-1-(2,6-dichloro-4-(trifluoromethyl)phenyl)-4-((trifluoromethyl)sulfinyl)-1H-pyrazole-3-carbonitrile, reference compound] | – | – | 0/5 | 1/5 | 1/5 | 1/5 | 1/5 | 5/5 | 5/5 | 5/5 | – | – | – | – | – | mortality at 0.1 ppm ([5]; 48 h, 0.1 ppm, Haemaphysalis longicornis larvae, 23° C., read-out: Mortality after 2 days): 30%; mortality at 1 ppm ([5]; 48 h, 1 ppm, Haemaphysalis longicornis larvae, 23° C., read-out: Mortality after 2 days): 100%; mortality at 10 ppm ([5]; 48 h, 10 ppm, Haemaphysalis longicornis larvae, 23° C., read-out: Mortality after 2 days): 100%; mortality at 0.1 ppm ([5]; 96 h, 0.1 ppm, Haemaphysalis longicornis larvae, 23° C., read-out: Mortality after 4 days): 60%; mortality at 1 ppm ([5]; 96 h, 1 ppm, Haemaphysalis longicornis larvae, 23° C., read-out: Mortality after 4 days): 100%; mortality at 10 ppm ([5]; 96 h, 10 ppm, Haemaphysalis longicornis larvae, 23° C., read-out: Mortality after 4 days): 100%
